Tests used:
[1] = in vitro; conditions: human, tissue homogenate
Description: Fresh blood, obtained from adult male Wistar rats, was collected in sterile the 170 I.U. lithium heparin-coated tubes (Vacutainer, BD Bioscience, UK). Blood was centrifuged immediately at 2,000 g for 15 minutes (4° C.) and supernatant was collected and diluted to 50% (v/v) with PBS. Livers and brains were obtained from adult male Wistar rats, and the tissues were blotted to dryness, weighed, sliced into pieces, and homogenised with ice-cold PBS (in 2 mL of buffer g^−1 of tissue) using the glass homogeniser. Then, tissue homogenates were centrifuged at 4,300 g for 1 hour (4° C.) and the supernatants collected. Glioblastoma cell homogenates were prepared using U-87 MG cells. Cells were cultured in Eagle's Minimum Essential Medium (EMEM) supplemented with 10% (v/v) heat-inactivated fetal bovine serum (FBS), 1% (v/v) of non-essential amino acids (NEAA) and 1 mM of sodium pyruvate in T75 flasks with a surface area of 75 cm^2 and maintained in a humidified atmosphere of 5% CO2 at 37° C. Breast cancer cell homogenates were prepared using MDA-MB-231 cells. Cells were cultured in Dulbecco's Modified Eagle Medium (DMEM) supplemented with high levels of glucose (4.5 g/L), 10% (v/v) heat-inactivated fetal bovine serum (FBS), 1% (v/v) of non-essential amino acids (NEAA) and penicillin and streptomycin (500 units/mL) in T75 flasks with a surface area of 75 cm^2 and maintained in a humidified atmosphere of 5% CO2 at 37° C. Media was changed for both cell lines every 3 to 4 days. After reaching confluence, cells were washed twice with Hank's Balanced Salt Solution (HBSS) and incubated with ˜2 mL of TrypLE Enzyme at 37° C. for ˜3 minutes. Then, complete media were added, and cells were centrifuged at 1,000 rpm for 5 minutes in C-28A centrifuge (Boeco, Germany). U-87 MG or MDA-MB-231 cells (˜10×10^6 cells mL^−1) were re-suspended in ice-cold PBS, and homogenised with a 2×5 second pulses with the probe sonicator (UP200S Ultrasonic processor, SciMed, 200 watts, amplitude of 60%). Cell debris were removed by centrifugation at 2,000 rpm for 5 minutes (Jouan B4i, Thermo Scientific, Paisley, UK). Supernatant was collected and stored at −80° C. Total protein concentration in the homogenates was determined using the Bradford assay with bovine serum albumin as a standard. Diluted plasma, tissue or cell homogenates were pre-warmed during ˜30 minutes at 37° C. Peptide stock solutions (Glu-GnRH, goserelin acetate and TPGnRH, 5 mM in PBS, 500 μL) were prepared and added to the homogenate solutions (120 μL). PAX-loaded nanofibers prepared at a ratio of 1:7.36 [PAX:TPGnRH consisting of 3 μmol (2.56 mg mL^−1) of PAX, 22.02 μmol (31.46 mg mL^−1) of TPGnRH], as previously described, and further diluted in PBS to achieve a concentration of 5 mM of TPGnRH and 500 nM of PAX (120 μL) were added to the homogenates. At various time intervals, an aliquot was collected (80 μL) and added to ice-cold ACN (80 μL) to quench the enzymatic activity. Samples were stored at −80° C. for at least 3 hours to maximise protein precipitation. Samples were vortexed for 15 minutes, centrifuged for 15 minutes at 12,000 rpm, and the supernatants were collected and analysed by RP-HPLC.

[2] = test system: SC-1800 cells; assay: Cytotoxicity (MTT) in cerebral astrocytes; format: cell-based, human; conditions: 3.5-140 μM, 4 and 24 hours
Description: Human brain microvessel endothelial cells (hCMEC/D3) and cerebral astrocytes (SC-1800) were maintained in a humidified atmosphere of 5% CO2, and the medium was refreshed every 2-3 days. hCMEC/D3 cells were cultured in endothelial basal medium-2 (EBM-2) supplemented with the EGM-2 Bullet Kit and 2% (v/v) human serum. SC-1800 were cultured in astrocytes basal medium (ABM) supplemented with AGM Bullet Kit and 3% (v/v) human serum. […] Subsequently, complete growth medium (4 mL) was added and cells were centrifuged using a C-28A centrifuge (Boeco, Hamburg, Germany) at 1,000 rpm for 5 minutes. Supernatant was discarded, and pellet was re-suspended in 1 mL of medium. The cell number was counted using Trypan Blue Exclusion Assay in the Countess II Automated Cell Counter (Thermo Scientific, Paisley, UK). hCMEC/D3 and SC-1800 cells were seeded at 20,000 cells/cm^2 in complete medium and allowed to attach overnight. […] Cell metabolic activity was measured after 4 and 24 hours using (3-(4,5)-dimethylthiazol-2-yl)-2,5-diphenyltetrazolium bromide ([…]) assay. […] Subsequently, DMSO (100 μL) was added to dissolve the formazan crystals and absorbance was measured at 570 and 690 nm. Metabolic activity was calculated by subtracting the absorbance values at 690 nm to 570 nm to remove background, and dividing the values by the control to express as a percentage (%) of the control using the equation below. […]

CCCCCCCCCCCCCCCC(=O)Oc1ccc(C[C@H](NC(=O)[C@H](CO)NC(=O)[C@H](Cc2c[nH]c3ccccc23)NC(=O)[C@H](Cc2c[nH]cn2)NC(=O)[C@@H](N)CCC(=O)O)C(=O)NCC(=O)N[C@@H](CC(C)C)C(=O)N[C@@H](CCCNC(=N)N)C(=O)N2CCC[C@H]2C(=O)NCC(N)=O)cc1 [TPGnRH, Tyrosine (O-Palmitoyl)-Glu-GnRH]
half-life at 4.03 mM [1]: 51.9 ± 8.73 h
cytotoxicity (metabolic activity, MTT) [2]: no cytotoxicity
